Laboratory results published in ChEMBL document CHEMBL1133379, “Bioisosteric modification of PETT-HIV-1 RT-inhibitors: synthesis and biological evaluation” (Bioorg Med Chem Lett, 2000).

Legend:
[1] = tested on: Human immunodeficiency virus 1; assay: Antiviral activity against HIV-1 virus.; assay type: functional; conditions: read-out: ED50 (the source's name)
[2] = target: Human immunodeficiency virus type 1 reverse transcriptase (Human immunodeficiency virus 1, UniProt Q72547); assay: Inhibition of wild-type HIV-1 Reverse transcriptase.

Row | SMILES | EC50 [1] | IC50 [2]
1 | CCOc1ccc(F)c(CCNC(=S)Nc2ccc(Br)cn2)c1Cl [THIOUREA, N-(5-BROMO-2-PYRIDINYL)-N'-(2-(2-CHLORO-3-ETHOXY-6-FLUOROPHENYL)ETHYL)-] | 7 nM | 
2 | S=C(NCCc1ccccc1)Nc1ccc(Cl)cn1 | 30 nM | 3 nM
3 | O=S(=O)(NCCc1ccccc1)Nc1cncc(Cl)c1 | > 100000 nM | > 10000 nM
4 | N=C(Nc1ccc(Br)cn1)N[C@@H]1C[C@@H]1c1ccccc1 | 1200 nM | 180 nM
5 | O=C(CC/N=C(\S)Nc1ccc(Br)cn1)c1ccccc1F | 9 nM | 4 nM
6 | O=C(CC/N=C(\S)Nc1ccc(Br)cn1)c1cc(F)ccc1F | 67 nM | < 25 nM
7 | O=C(CCNC(=S)Nc1ccc(Br)cn1)c1c(F)cccc1F | 50 nM | 3 nM
8 | O=C(CCNC(=S)Nc1ccc(Br)cn1)c1ccccc1Cl | 100 nM | 10 nM
9 | COc1cccc(C(=O)CC/N=C(\S)Nc2ccc(Br)cn2)c1 | 911 nM | 80 nM
10 | COc1ccccc1C(=O)CCNC(=S)Nc1ccc(Br)cn1 | 76 nM | 3 nM
11 | O=C(NCCC(=O)c1ccccc1F)Nc1ccc(Br)cn1 | 201 nM | 54 nM
12 | O=C(CC/N=C(\S)Nc1ccc(Cl)cn1)c1c(F)cccc1F | 28 nM | 6 nM
13 | Fc1cccc(F)c1CC/N=C(\S)Nc1ccc(Br)cn1 | 10 nM | 
14 | N#CN/C(=N\c1ccc(Cl)cn1)NCCc1ccccc1 | > 100000 nM | > 10000 nM
15 | COc1ccccc1CCN=C(NC#N)Nc1nccs1 | > 100000 nM | > 10000 nM
16 | CCOc1ccc(F)c(CCNC(=O)Nc2ccc(Br)cn2)c1Cl | 50 nM | 
17 | O=C(CCNC(=S)Nc1ccc(Br)cn1)c1ccccc1 | 36 nM | < 27 nM
18 | COc1ccccc1CCNC(=S)Nc1nccs1 | 400 nM | 
19 | CCOc1ccc(F)c(CC/N=C(\N)Nc2ccc(Br)cn2)c1Cl | 1000 nM | 400 nM
20 | S=C(Nc1ccc(Br)cn1)N[C@@H]1C[C@@H]1c1ccccc1 | 20 nM | 8 nM
21 | O=C(CC/N=C(\S)Nc1ccc(Br)cn1)c1ccc(F)cc1 | 300 nM | 47 nM
